From ChEMBL document CHEMBL3085727 (J Med Chem, 2013)
pEC50: −log10 of the molar value. Activity calls are given as the source filed them. The calls are words filed in the database; no cut-off is given here.

Tests used:
Homo sapiens [1] = species on record: Homo sapiens; test: Selectivity ratio of Ki for human kappa opioid receptor to Ki for human mu opioid receptor
Homo sapiens [2] = species on record: Homo sapiens; test: Selectivity ratio of Ki for human delta opioid receptor to Ki for human mu opioid receptor
Homo sapiens [3] = species on record: Homo sapiens; test: Selectivity ratio of Ki for mu opioid receptor (unknown origin) to Ki for kappa opioid receptor (unknown origin)
Homo sapiens [4] = species on record: Homo sapiens; test: Selectivity ratio of Ki for delta opioid receptor (unknown origin) to Ki for kappa opioid receptor (unknown origin)
Homo sapiens [5] = species on record: Homo sapiens; test: Selectivity ratio of Ki for delta opioid receptor (unknown origin) to Ki for mu opioid receptor (unknown origin)
Mu-type opioid receptor [6] = molecular target: T1, Mu-type opioid receptor (Homo sapiens, UniProt P35372); test: Agonist activity at mu opioid receptor (unknown origin) expressed in CHO cell membranes assessed as stimulation of [35S]-GTPgammaS binding after 1.5 hrs relative to DAMGO; type: functional
Mus musculus [7] = test: Induction of withdrawal symptoms in chronic morphine-exposed Swiss-Webster mouse assessed as decrease in wet dog shakes at 1 mg/kg, sc measured over 20 mins; type: organism-based; set-up: dose 1 mg/kg, route subcutaneous; details: in vivo
Mus musculus [8] = test: Induction of withdrawal symptoms in chronic morphine-exposed Swiss-Webster mouse assessed as decrease in escape jumps at 1 mg/kg, sc measured over 20 mins; type: organism-based; set-up: dose 1 mg/kg, route subcutaneous; details: in vivo
Homo sapiens [9] = species on record: Homo sapiens; test: Selectivity ratio of Ki for kappa opioid receptor (unknown origin) to Ki for mu opioid receptor (unknown origin)
Mu-type opioid receptor [10] = molecular target: T1, Mu-type opioid receptor; test: Agonist activity at mu opioid receptor (unknown origin) expressed in CHO cell membranes assessed as stimulation of [35S]-GTPgammaS binding at 10 uM after 1.5 hrs relative to DAMGO; type: functional
Mus musculus [11] = test: Reduction of morphine-induced antinociceptive activity in sc dosed Swiss-Webster mouse assessed as dose required to antagonize morphine effect by warm-water tail-flick assay; type: functional
[12] = molecular target: T2, Kappa-type opioid receptor (Homo sapiens, UniProt P41145); test: Agonist activity at kappa opioid receptor (unknown origin) expressed in CHO cell membranes assessed as stimulation of [35S]-GTPgammaS binding after 1.5 hrs relative to U50488; type: functional
Mus musculus [13] = test: Antinociceptive activity in Swiss-Webster mouse up to 30 mg/kg, sc by warm-water tail-flick assay; type: functional, organism-based; set-up: dose 30 mg/kg
[14] = molecular target: Delta-type opioid receptor (Homo sapiens) (UniProt P41143); test: Agonist activity at delta opioid receptor (unknown origin) expressed in CHO cell membranes assessed as stimulation of [35S]-GTPgammaS binding after 1.5 hrs relative to SNC80; type: functional
Mus musculus [15] = test: Induction of withdrawal symptoms in chronic morphine-exposed Swiss-Webster mouse assessed as decrease in escape jumps at 3 to 10 mg/kg, sc measured over 20 mins; type: organism-based; set-up: dose 3-10 mg/kg, route subcutaneous; details: in vivo
Mus musculus [16] = test: Induction of withdrawal symptoms in chronic morphine-exposed Swiss-Webster mouse assessed as decrease in wet dog shakes at 10 to 30 mg/kg, sc measured over 20 mins; type: organism-based; set-up: dose 10-30 mg/kg, route subcutaneous; details: in vivo
Mus musculus [17] = test: Induction of withdrawal symptoms in chronic morphine-exposed Swiss-Webster mouse assessed as decrease in escape jumps at 30 mg/kg, sc measured over 20 mins; type: organism-based; set-up: dose 30 mg/kg, route subcutaneous; details: in vivo
Mus musculus [18] = test: Induction of withdrawal symptoms in chronic morphine-exposed Swiss-Webster mouse assessed as decrease in wet dog shakes at 3 mg/kg, sc measured over 20 mins; type: organism-based; set-up: dose 3 mg/kg, route subcutaneous; details: in vivo
[19] = molecular target: T2, Kappa-type opioid receptor; test: Partial agonist activity at human kappa opioid receptor expressed in CHO cells assessed as stimulation of [35S]-GTPgammaS binding after 3 hrs by liquid scintillation counting analysis; type: functional, cell-based
Mus musculus [20] = test: Induction of withdrawal symptoms in chronic morphine-exposed Swiss-Webster mouse assessed as decrease in wet dog shakes at 3 to 30 mg/kg, sc measured over 20 mins; type: organism-based; set-up: dose 3-30 mg/kg, route subcutaneous; details: in vivo
Mus musculus [21] = test: Induction of withdrawal symptoms in chronic morphine-exposed Swiss-Webster mouse assessed as decrease in escape jumps at 10 to 30 mg/kg, sc measured over 20 mins; type: organism-based; set-up: dose 10-30 mg/kg, route subcutaneous; details: in vivo

T1 sequence (P35372 whole entry): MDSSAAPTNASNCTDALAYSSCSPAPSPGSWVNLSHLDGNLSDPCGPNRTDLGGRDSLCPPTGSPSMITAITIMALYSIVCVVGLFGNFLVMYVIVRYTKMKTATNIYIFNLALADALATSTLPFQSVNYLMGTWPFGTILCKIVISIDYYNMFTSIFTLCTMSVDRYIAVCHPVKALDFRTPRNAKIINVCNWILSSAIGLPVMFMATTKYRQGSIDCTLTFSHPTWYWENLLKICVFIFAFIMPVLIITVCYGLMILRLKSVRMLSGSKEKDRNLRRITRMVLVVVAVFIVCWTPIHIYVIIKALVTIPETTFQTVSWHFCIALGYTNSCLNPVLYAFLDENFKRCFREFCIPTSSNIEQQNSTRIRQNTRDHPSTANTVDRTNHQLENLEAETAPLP
Sequence of Delta-type opioid receptor (Homo sapiens) (P41143 whole entry): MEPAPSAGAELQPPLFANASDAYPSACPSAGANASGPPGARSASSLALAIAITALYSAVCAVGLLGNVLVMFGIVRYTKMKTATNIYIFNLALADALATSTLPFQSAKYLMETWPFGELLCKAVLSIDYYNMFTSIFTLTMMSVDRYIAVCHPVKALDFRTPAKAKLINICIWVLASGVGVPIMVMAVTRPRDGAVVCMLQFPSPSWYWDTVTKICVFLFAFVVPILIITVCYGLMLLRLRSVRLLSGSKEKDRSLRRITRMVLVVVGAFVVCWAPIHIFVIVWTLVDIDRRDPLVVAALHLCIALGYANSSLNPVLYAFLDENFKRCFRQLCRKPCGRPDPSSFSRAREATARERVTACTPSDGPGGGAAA
T2 sequence (P41145 whole entry): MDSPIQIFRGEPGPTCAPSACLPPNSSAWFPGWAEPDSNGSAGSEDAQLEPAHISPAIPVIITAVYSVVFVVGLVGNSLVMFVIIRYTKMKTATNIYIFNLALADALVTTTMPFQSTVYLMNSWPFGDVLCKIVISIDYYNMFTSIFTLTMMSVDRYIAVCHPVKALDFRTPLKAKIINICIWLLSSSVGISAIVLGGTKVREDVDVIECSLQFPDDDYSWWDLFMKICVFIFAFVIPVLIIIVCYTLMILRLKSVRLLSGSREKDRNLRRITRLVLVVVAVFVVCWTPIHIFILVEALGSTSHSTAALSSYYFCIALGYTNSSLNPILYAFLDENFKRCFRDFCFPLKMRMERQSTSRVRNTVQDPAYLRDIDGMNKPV

Compound | Ratio Ki (Homo sapiens [3]) | Ratio Ki (Homo sapiens [4]) | Ratio Ki (Homo sapiens [5]) | Emax (Mu-type opioid receptor [6]) [%] | Ratio Ki (Homo sapiens [9]) | further results
Cc1ccc(/C=C/C(=O)O[C@@]23CCC(=O)[C@@H]4Oc5c(O)ccc6c5[C@@]42CCN(CC2CC2)[C@@H]3C6)cc1 |  |  |  |  |  | Ratio Ki (Homo sapiens [1]): 15; Ratio Ki (Homo sapiens [2]): 31
O=C(CNC(=O)c1ccccn1)N[C@@]12CCC(=O)[C@@H]3Oc4c(O)ccc5c4[C@@]31CCN(CC1CC1)[C@@H]2C5 | 2.1 | 2.6 | 1.2 | 11.8 |  | 
O=C1CC[C@@]2(O)[C@H]3Cc4ccc(O)c5c4[C@@]2(CCN3CC2CC2)[C@H]1O5 [NALTREXONE] |  |  |  |  |  | Activity (Mus musculus [7]): Toxic; Activity (Mus musculus [8]): Toxic
O=C(N[C@@]12CCC(=O)[C@@H]3Oc4c(O)ccc5c4[C@@]31CCN(CC1CC1)[C@@H]2C5)c1ccc2ccccc2n1 | 35 | 58 | 1.7 | 34.4 |  | 
O=C(N[C@@]12CCC(=O)[C@@H]3Oc4c(O)ccc5c4[C@@]31CCN(CC1CC1)[C@@H]2C5)c1ccccc1 | 36 | 477 | 13 | 5.8 |  | 
O=C(O[C@@]12CCC(=O)[C@@H]3Oc4c(O)ccc5c4[C@@]31CCN(CC1CC1)[C@@H]2C5)c1cnc2ccccc2c1 |  | 5.5 | 304 | 22 | 55 | 
O=C(O[C@@]12CCC(=O)[C@@H]3Oc4c(O)ccc5c4[C@@]31CCN(CC1CC1)[C@@H]2C5)c1ccccc1 |  | > 17 |  |  | 4.7 | 
Cl.O=C(N[C@@]12CCC(=O)[C@@H]3Oc4c(O)ccc5c4[C@@]31CCN(CC1CC1)[C@@H]2C5)c1ccccn1 | 4.2 | 263 | 63 |  |  | Emax (Mu-type opioid receptor [10]): 0.9%; Activity (Mus musculus [11]): 0.25 mg/kg; Emax [12]: 24.9%; Activity (Mus musculus [13]): inactive; Emax [14]: 8.6%; Activity (Mus musculus [15]): Non-toxic; Activity (Mus musculus [16]): Toxic; Activity (Mus musculus [17]): Toxic; Activity (Mus musculus [18]): Non-toxic
Oc1cccc2c1O[C@H]1CCC[C@H]3CN(CC4CC4)CC[C@@]231 |  |  |  |  |  | pEC50 [19]: 8.57
Cl.O=C(N[C@@]12CCC(=O)[C@@H]3Oc4c(O)ccc5c4[C@@]31CCN(CC1CC1)[C@@H]2C5)c1cc2ccccc2cn1 | 13 | 93 | 7.2 |  |  | Emax (Mu-type opioid receptor [10]): 2.8%; Activity (Mus musculus [20]): Toxic; Activity (Mus musculus [11]): 0.87 mg/kg; Emax [12]: 16.8%; Activity (Mus musculus [13]): inactive; Emax [14]: 23.8%; Activity (Mus musculus [15]): Non-toxic; Activity (Mus musculus [17]): Toxic
O=C(N[C@@]12CCC(=O)[C@@H]3Oc4c(O)ccc5c4[C@@]31CCN(CC1CC1)[C@@H]2C5)c1ccc2ccccc2c1 | 19 | 32 | 1.7 | 16.5 |  | 
O=C(O[C@@]12CCC(=O)[C@@H]3Oc4c(O)ccc5c4[C@@]31CCN(CC1CC1)[C@@H]2C5)c1ccc2ccccc2c1 |  | 19 | 4 |  | 0.21 | 
C=CCN1CC[C@]23c4c5ccc(O)c4O[C@H]2C(=O)CC[C@@]3(O)[C@H]1C5 [NALOXONE] |  |  |  |  |  | Activity (Mus musculus [7]): Toxic; Activity (Mus musculus [8]): Toxic
O=C(N[C@@]12CCC(=O)[C@@H]3Oc4c(O)ccc5c4[C@@]31CCN(CC1CC1)[C@@H]2C5)c1ccncc1 | 2.5 | 33 | 13 | 7.7 |  | 
O=C(O[C@@]12CCC(=O)[C@@H]3Oc4c(O)ccc5c4[C@@]31CCN(CC1CC1)[C@@H]2C5)c1cccnc1 |  | 3.6 | 107 |  | 30 | 
O=C(O[C@@]12CCC(=O)[C@@H]3Oc4c(O)ccc5c4[C@@]31CCN(CC1CC1)[C@@H]2C5)c1ccccn1 |  | 4.6 | 838 |  | 182 | 
COc1cccc2c1[C@]13CCN(CC4CC4)[C@H](C2)[C@]1(OC)CCC(=O)C3 [CYPRODIME] |  |  | 39 |  | 10 | 
O=C(O[C@@]12CCC(=O)[C@@H]3Oc4c(O)ccc5c4[C@@]31CCN(CC1CC1)[C@@H]2C5)c1ccc2ccccc2n1 |  | 0.34 | 16 |  | 47 | 
O=C(CCc1ccccn1)N[C@@]12CCC(=O)[C@@H]3Oc4c(O)ccc5c4[C@@]31CCN(CC1CC1)[C@@H]2C5 | 1.9 | 54 | 29 | 12.7 |  | 
O=C(O[C@@]12CCC(=O)[C@@H]3Oc4c(O)ccc5c4[C@@]31CCN(CC1CC1)[C@@H]2C5)c1ccncc1 |  | 8.2 | 73 |  | 8.8 | 
Cc1ccc(/C=C/C(=O)N[C@@]23CCC(=O)[C@@H]4Oc5c(O)ccc6c5[C@@]42CCN(CC2CC2)[C@@H]3C6)cc1 |  |  |  |  |  | Ratio Ki (Homo sapiens [1]): 3; Ratio Ki (Homo sapiens [2]): 1
Cl.O=C(N[C@@]12CCC(=O)[C@@H]3Oc4c(O)ccc5c4[C@@]31CCN(CC1CC1)[C@@H]2C5)c1cccnc1 | 4.7 | 249 | 53 |  |  | Emax (Mu-type opioid receptor [10]): 5.1%; Activity (Mus musculus [21]): Toxic; Activity (Mus musculus [11]): 0.55 mg/kg; Emax [12]: 35.3%; Activity (Mus musculus [13]): inactive; Emax [14]: 10.3%; Activity (Mus musculus [16]): Toxic
O=C(Cc1ccccn1)N[C@@]12CCC(=O)[C@@H]3Oc4c(O)ccc5c4[C@@]31CCN(CC1CC1)[C@@H]2C5 | 1.5 | 21 | 14 | 78 |  | 
O=C(N[C@@]12CCC(=O)[C@@H]3Oc4c(O)ccc5c4[C@@]31CCN(CC1CC1)[C@@H]2C5)c1cnc2ccccc2c1 | 8.7 | 11 | 1.3 | 15.8 |  | 
